In the NIST ThermoML archive (doi:10.1021/je0603022):

Key:
[1] = refractive index (Na D-line) (dimensionless); xn = mol fraction of the nth substance listed; settings: 293.15 K, 101.3 kPa, Liquid, Standard Abbe refractometry
[2] = refractive index (Na D-line) (dimensionless); settings: 101.33 kPa, Liquid, Standard Abbe refractometry
[3] = Liquid, Ebulliometric method (Recirculating still)

CCCCCC [hexane] + c1ccsc1
Settings | refractive index
[1], x2 = 0 | 1.3751

C=CCCCC [hex-1-ene]
Settings | refractive index | vapor or sublimation pressure [kPa]
[2], 293.15 K | 1.3881 | –
[2], 298.15 K | 1.3851 | –
[3], 298.99 K | – | 25.68
[3], 302.85 K | – | 30.13
[3], 306.73 K | – | 35.19
[3], 310.9 K | – | 41.41
[3], 316.17 K | – | 50.46
[3], 320.92 K | – | 59.91
[3], 323.15 K | – | 64.82
[3], 325.41 K | – | 70.09
[3], 329.11 K | – | 79.46
[3], 330.99 K | – | 84.63
[3], 332.94 K | – | 90.24
[3], 333.15 K | – | 90.94
[3], 336.04 K | – | 99.73

c1ccsc1 [thiophene] + CCCCCC
[1]
Settings | refractive index
x1 = 0.027 | 1.3774
x1 = 0.05 | 1.3794
x1 = 0.08 | 1.3822
x1 = 0.096 | 1.3836
x1 = 0.194 | 1.3933
x1 = 0.292 | 1.4039
x1 = 0.394 | 1.4161
x1 = 0.494 | 1.4296
x1 = 0.588 | 1.4438
x1 = 0.697 | 1.4624
x1 = 0.797 | 1.4814
x1 = 0.897 | 1.5034
x1 = 0.919 | 1.5084
x1 = 0.949 | 1.5158
x1 = 0.974 | 1.5219
x1 = 1 | 1.5287

C=CCCCC [hex-1-ene] + c1ccsc1
Settings | refractive index
[1], x2 = 0 | 1.3881

c1ccsc1 [thiophene] + C=CCCCC
[1]
Settings | refractive index
x1 = 0.024 | 1.3903
x1 = 0.051 | 1.3926
x1 = 0.076 | 1.3949
x1 = 0.094 | 1.3966
x1 = 0.185 | 1.4055
x1 = 0.288 | 1.4163
x1 = 0.378 | 1.4266
x1 = 0.486 | 1.4402
x1 = 0.579 | 1.453
x1 = 0.683 | 1.4688
x1 = 0.788 | 1.4866
x1 = 0.89 | 1.5058
x1 = 0.91 | 1.5097
x1 = 0.948 | 1.5174
x1 = 0.974 | 1.523
x1 = 1 | 1.5287

CCCCCC [hexane]
Settings | refractive index | vapor or sublimation pressure [kPa]
[2], 293.15 K | 1.3751 | –
[2], 298.15 K | 1.3724 | –
[3], 307.31 K | – | 29.67
[3], 311.36 K | – | 34.86
[3], 314.93 K | – | 40.02
[3], 316.81 K | – | 43.01
[3], 321.97 K | – | 52.02
[3], 323.15 K | – | 54.25
[3], 326.94 K | – | 62.11
[3], 331 K | – | 71.39
[3], 335.54 K | – | 83.09
[3], 338.15 K | – | 90.44
[3], 338.59 K | – | 91.73
[3], 342 K | – | 102.27

Cc1ccccc1 [toluene]
Settings | refractive index
[2], 298.15 K | 1.4939

c1ccsc1 [thiophene]
Settings | refractive index, 293.15 K | refractive index, 298.15 K | vapor or sublimation pressure, 323.15 K [kPa] | vapor or sublimation pressure, 333.15 K [kPa] | vapor or sublimation pressure, 338.15 K [kPa]
[2] | 1.5287 | 1.5255 | – | – | –
[3] | – | – | 31.21 | 45.44 | 54.27
